Data reported in US8791108B2, “Inhibitors of human immunodeficiency virus replication” (priority 2011, dated 2014).
pEC50: −log10 of the molar value. Like-named read-outs stand apart in the source and are kept apart here.

System: recombinant NL-Rluc virus
Test: Inhibition of HIV replication (NL-RLuc luciferase reporter virus, MT-2 cells)
Assay type: cell-based
Conditions: Human immunodeficiency virus 1, MT2, 120 h; for pEC50: read-out: Activity; for EC50: read-out: EC50 μM

## Cc1nc2cc(C(=O)NCC3CCN(C(=O)C4CC4)CC3)nn2c(-c2cc(F)c3c(c2C)CCCO3)c1[C@H](OC(C)(C)C)C(=O)O [Example 58, (2S)-2-(tert-butoxy)-2-(2-(((1-(cyclopropanecarbonyl)piperidin-4-yl)methyl)carbamoyl)-7-(8-fluoro-5-methylchroman-6-yl)-5-methylpyrazolo[1,5-a]pyrimidin-6-yl)acetic acid]
  pEC50: < 6.00

## Cc1nc2cc(C(=O)NCC3CCN(C(=O)OC(C)(C)C)CC3)nn2c(-c2cc(F)c3c(c2C)CCCO3)c1[C@H](OC(C)(C)C)C(=O)O [Example 59, (2S)-2-(tert-butoxy)-2-(2-(((1-(tert-butoxycarbonyl)piperidin-4-yl)methyl)carbamoyl)-7-(8-fluoro-5-methylchroman-6-yl)-5-methylpyrazolo[1,5-a]pyrimidin-6-yl)acetic acid]
  pEC50: 6.00 to 7.00

## Cc1ccc(CNC(=O)c2cc3nc(C)c([C@H](OC(C)(C)C)C(=O)O)c(-c4cc(F)c5c(c4C)CCCO5)n3n2)cc1F [Example 60, (2S)-2-(tert-butoxy)-2-(2-((3-fluoro-4-methylbenzyl)carbamoyl)-7-(8-fluoro-5-methylchroman-6-yl)-5-methylpyrazolo[1,5-a]pyrimidin-6-yl)acetic acid]
  pEC50: > 7.00

## Cc1nc2cc(C(=O)NCc3cccnc3)nn2c(-c2cc(F)c3c(c2C)CCCO3)c1[C@H](OC(C)(C)C)C(=O)O [Example 61, (2S)-2-(tert-butoxy)-2-(7-(8-fluoro-5-methylchroman-6-yl)-5-methyl-2-((pyridin-3-ylmethyl)carbamoyl)pyrazolo[1,5-a]pyrimidin-6-yl)acetic acid]
  pEC50: < 6.00

## Cc1nc2cc(C(=O)NCCC(C)(C)C)nn2c(-c2cc(F)c3c(c2C)CCCO3)c1[C@H](OC(C)(C)C)C(=O)O [Example 62, (2S)-2-(tert-butoxy)-2-(2-((3,3-dimethylbutyl)carbamoyl)-7-(8-fluoro-5-methylchroman-6-yl)-5-methylpyrazolo[1,5-a]pyrimidin-6-yl)acetic acid]
  pEC50: > 7.00
  EC50: 0.013 µM

## Cc1nc2cc(C(=O)NCc3ccc(F)cc3O)nn2c(-c2cc(F)c3c(c2C)CCCO3)c1[C@H](OC(C)(C)C)C(=O)O [Example 63, (2S)-2-(tert-butoxy)-2-(2-((4-fluoro-2-hydroxybenzyl)carbamoyl)-7-(8-fluoro-5-methylchroman-6-yl)-5-methylpyrazolo[1,4-a]pyrimidin-6yl)acetic acid]
  pEC50: > 7.00

## Cc1nc2cc(C(=O)NCc3cccc(C(F)(F)F)c3)nn2c(-c2cc(F)c3c(c2C)CCCO3)c1[C@H](OC(C)(C)C)C(=O)O [Example 64]
  pEC50: > 7.00

## COc1ccc(CCNC(=O)c2cc3nc(C)c([C@H](OC(C)(C)C)C(=O)O)c(-c4cc(F)c5c(c4C)CCCO5)n3n2)cc1 [Example 65, (2S)-2-(tert-butoxy)-2-(7-(8-fluoro-5-methylchroman-6-yl)-2-((4-methoxyphenethyl)carbamoyl)-5-methylpyrazolo[1,5-a]pyrimidin-6-yl)acetic acid]
  pEC50: > 7.00

## Cc1nc2cc(C(=O)NCc3ccc(C(F)(F)F)cc3)nn2c(-c2cc(F)c3c(c2C)CCCO3)c1[C@H](OC(C)(C)C)C(=O)O [Example 66, (2S)-2-(tert-butoxy)-2-(7-(8-fluoro-5-methylchroman-6-yl)-5-methyl-2-((4-(trifluoromethyl)benzyl)carbamoyl)pyrazolo[1,5-a]pyrimidin-6-yl)acetic acid]
  pEC50: > 7.00

## Cc1nc2cc(C(=O)NCc3cccc(OC(F)(F)F)c3)nn2c(-c2cc(F)c3c(c2C)CCCO3)c1[C@H](OC(C)(C)C)C(=O)O [Example 67]
  pEC50: > 7.00
  EC50: 0.009 µM

## Cc1nc2cc(C(=O)NCc3ccc(Oc4ccccc4)cc3)nn2c(-c2cc(F)c3c(c2C)CCCO3)c1[C@H](OC(C)(C)C)C(=O)O [Example 68, (2S)-2-(tert-butoxy)-2-(7-(8-fluoro-5-methylchroman-6-yl)-5-methyl-2-((4-phenoxybenzyl)carbamoyl)pyrazolo[1,5-a]pyrimidin-6-yl)acetic acid]
  pEC50: > 7.00

## Cc1nc2cc(C(=O)NCc3cccc(-c4ccccc4)c3)nn2c(-c2cc(F)c3c(c2C)CCCO3)c1[C@H](OC(C)(C)C)C(=O)O [Example 69, (2S)-2-(2-(([1,1′-biphenyl]-3-ylmethyl)carbamoyl)-7-(8-fluoro-5-methylchroman-6-yl)-5-methylpyrazolo[1,5-a]pyrimidin-6-yl)-2-(tert-butoxy)acetic acid]
  pEC50: > 7.00

## Cc1nc2cc(C(=O)NCc3ccc(-c4ccccc4)cc3)nn2c(-c2cc(F)c3c(c2C)CCCO3)c1[C@H](OC(C)(C)C)C(=O)O [Example 70, (2S)-2-(2-(([1,1′-biphenyl]-4-ylmethyl)carbamoyl)-7-(8-fluoro-5-methylchroman-6-yl)-5-methylpyrazolo[1,5-a]pyrimidin-6-yl)-2-(tert-butoxy)acetic acid]
  pEC50: > 7.00

## COc1cccc(CNC(=O)c2cc3nc(C)c([C@H](OC(C)(C)C)C(=O)O)c(-c4cc(F)c5c(c4C)CCCO5)n3n2)c1 [Example 71]
  pEC50: > 7.00

## Cc1nc2cc(C(=O)NCCC3CCN(Cc4ccccc4)CC3)nn2c(-c2cc(F)c3c(c2C)CCCO3)c1[C@H](OC(C)(C)C)C(=O)O [Example 72, (2S)-2-(2-((2-(1-benzylpiperidin-4-yl)ethyl)carbamoyl)-7-(8-fluoro-5-methylchroman-6-yl)-5-methylpyrazolo[1,5-a]pyrimidin-6-yl)-2-(tert-butoxy)acetic acid]
  pEC50: 6.00 to 7.00
  EC50: 0.668 µM

## Cc1nc2cc(C(=O)Nc3ccc(C4CCCCC4)cc3)nn2c(-c2cc(F)c3c(c2C)CCCO3)c1[C@H](OC(C)(C)C)C(=O)O [Example 73, (2S)-2-(tert-butoxy)-2-(2-((4-cyclohexylphenyl)carbamoyl)-7-(8-fluoro-5-methylchroman-6-yl)-5-methylpyrazolo[1,5-a]pyrimidin-6-yl)acetic acid]
  pEC50: > 7.00

## Cc1nc2cc(C(=O)NCCC3CCCN3C)nn2c(-c2cc(F)c3c(c2C)CCCO3)c1[C@H](OC(C)(C)C)C(=O)O (stereo partly drawn) [Example 74, (2S)-2-(tert-butoxy)-2-(7-(8-fluoro-5-methylchroman-6-yl)-5-methyl-2-((2-(1-methylpyrrolidin-2-yl)ethyl)carbamoyl)pyrazolo[1,5-a]pyrimidin-6-yl)acetic acid]
  pEC50: < 6.00

## Cc1nc2cc(C(=O)NCCN3CCCC3)nn2c(-c2cc(F)c3c(c2C)CCCO3)c1[C@H](OC(C)(C)C)C(=O)O [Example 75, (2S)-2-(tert-butoxy)-2-(7-(8-fluoro-5-methylchroman-6-yl)-5-methyl-2-((2-(pyrrolidin-1-yl)ethyl)carbamoyl)pyrazolo[1,5-a]pyrimidin-6-yl)acetic acid]
  pEC50: < 6.00

## Cc1nc2cc(C(=O)NCCCN3CCCC3=O)nn2c(-c2cc(F)c3c(c2C)CCCO3)c1[C@H](OC(C)(C)C)C(=O)O [Example 76]
  pEC50: < 6.00

## Cc1nc2cc(C(=O)NCC3CCCO3)nn2c(-c2cc(F)c3c(c2C)CCCO3)c1[C@H](OC(C)(C)C)C(=O)O (stereo partly drawn) [Example 77, (2S)-2-(tert-butoxy)-2-(7-(8-fluoro-5-methylchroman-6-yl)-5-methyl-2-(((tetrahydrofuran-2-yl)methyl)carbamoyl)pyrazolo[1,5-a]pyrimidin-6-yl)acetic acid]
  pEC50: 6.00 to 7.00
